Assay: hygroscopicity analysis (desiccator, relative humidity 82%, 40° C., 24 hours)
Format: physicochemical
Conditions: for amount of absorbed moisture: 1 g sample, relative humidity 82% (saturated aqueous potassium chloride), after 24 hours; for deliquescence in the hygroscopicity analysis: relative humidity 82%, 24 hours, macroscopic observation
Procedure: The term “nondeliquescent” used in the specification means that a substance is nonhygroscopic (in general, an amount of absorbed moisture is 5% or less at 40° C. under 82% of relative humidity after 24 hours), or not suffered from deliquescence by moisture absorption. More specifically, the term means that no deliquescence is macroscopically observed in a part or whole surface of a solid calcium pantothenate at 40° C. under 82% of the relative humidity within 24 hours. The calcium pantothenate of the present invention comprising an amount of a crystalline component sufficient to prevent deliquescence is an example of the nondeliquescent and crystalline calcium pantothenate.
This product was further dried by using a normal-pressure warm-air dryer at 80° C. for 30 minutes and milled in a mortar, and then sized through a filter No.83 and subjected to a hygroscopicity analysis. The sample (1 g) was placed in a desiccator adjusted to relative humidity of 82% with a saturated aqueous solution of potassium chloride at 40° C., and an amount of absorbed moisture after 24 hours was determined. […] An amorphous was dried in the same manner and the amount of absorbed moisture was determined under the same conditions. […] Moreover, the powder X-ray diffraction analysis of the aforementioned product gave the characteristic peak indicated by the arrow, which verified that the product was a crystalline substance containing the monohydrate (FIG. 1).

| amount of absorbed moisture [%] | deliquescence in the hygroscopicity analysis | Substance |
| --- | --- | --- |
| 0.7 | no deliquescence was observed | calcium pantothenate [Example 2] |
| 0.8 | no deliquescence was observed | calcium pantothenate [Example 3] |

| Substance | amount of absorbed moisture [%] | deliquescence in the hygroscopicity analysis |
| --- | --- | --- |
| monocalcium bis[(R)-N-(2,4-dihydroxy-3,3-dimethylbutyryl)-β-alaninate] [amorphous calcium pantothenate, reference compound] | 7.0 | macroscopically apparent deliquescence of the surface was observed |
